Measured values reported in patent publication US12686690B2, “Macrocyclic urea orexin receptor agonists” (Merck Sharp & Dohme LLC, priority 2020, dated 2026).

Target: T1, hOX2R (Homo sapiens, UniProt O43614)
T1 construct: expressed in transfected cells; host or cells: CHO cells (G418 selection)
T1 sequence (O43614 1-444): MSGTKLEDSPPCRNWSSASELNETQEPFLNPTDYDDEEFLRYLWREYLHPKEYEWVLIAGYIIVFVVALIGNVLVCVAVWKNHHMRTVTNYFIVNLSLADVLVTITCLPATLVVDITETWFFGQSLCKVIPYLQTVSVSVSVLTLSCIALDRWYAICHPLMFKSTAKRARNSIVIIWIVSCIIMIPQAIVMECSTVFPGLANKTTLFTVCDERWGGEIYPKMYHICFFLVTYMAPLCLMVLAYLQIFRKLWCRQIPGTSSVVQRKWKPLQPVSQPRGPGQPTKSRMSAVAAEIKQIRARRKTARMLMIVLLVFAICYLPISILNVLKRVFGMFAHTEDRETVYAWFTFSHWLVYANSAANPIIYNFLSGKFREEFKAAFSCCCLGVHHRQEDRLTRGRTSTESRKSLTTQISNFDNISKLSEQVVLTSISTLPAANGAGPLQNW
Test: hOX2R IPone assay (orexin receptor agonism)
Assay type: cell-based
Conditions: IPone readout; for hOX2R_Ipone max %act: maximal activation; for EC50: orexin receptor agonist, read-out: hOX2R_IPone EC50

hOX2R_Ipone max %act [%]	EC50 [nM]	Structure (SMILES)
100.8	167	CCN1C(=O)N[C@@H](CCC(F)(F)F)CCCCCOc2nc(cn3ccnc23)-c2nc(ncc2C)[C@@H]1C [Example 93A, (12S,16R)-13-ethyl-8,12-dimethyl-16-(3,3,3-trifluoro-propyl)-12,13,16,17, 18,19,20,21-octa-hydro-6,23:11,7-di(azeno)imidazo[2,1-c][1,4,10,13,15]oxatet-raazacyclohenicosin-14(15H)-one]
100.6	1.8	CCN1C(=O)N[C@@H](CCC(F)(F)F)CCCCCOc2nc(cn3ccnc23)-c2nc(ncc2C)[C@H]1C [Example 93B, (12R,16R)-13-ethyl-8,12-dimethyl-16-(3,3,3-trifluoro-propyl)-12,13,16,17, 18,19,20,21-octa-hydro-6,23:11,7-di(azeno)imidazo[2,1-c][1,4,10,13,15]oxatet-raazacyclohenicosin-14(15H)-one]
99.78	25.4	CCN1C(=O)N[C@@H](CCC(F)(F)F)CCCCCOc2nc(cn3ccnc23)C2=CN=C(S2)C1C (stereo partly drawn) [Example 95, (15R)-12-ethyl-11-methyl-15-(3,3,3-trifluoropropyl)-11,12,15,16,17,18,19, 20-octahydro-6,22-(azeno)-7,10-epithioimidazo[2,1-c][1,4,9,12,14]oxatet-raazacycloicosin-13(14H)-one]
102	0.6	CCN1C(=O)N[C@@H](CCC(F)(F)F)CCCCCOc2nc(cn3ccnc23)-c2nc(ccc2OC)[C@H]1C [Example 97, (12R,16R)-13-ethyl-8-methoxy-12-methyl-16-(3,3,3-trifluoropropyl)-12,13,16,17,18,19,20, 21-octahydro-6,23:11,7-di(azeno) imidazo[2,1-c][1,4,13,15]oxatriaza-cyclohenicosin-14(15H)-one]
101.2	8.6	CCN1C(=O)N[C@@H](CCC(F)(F)F)CCCCCOc2nc(nc3ccnn23)-c2cc(ncc2OC)[C@H]1C [Example 98, (11R,15R)-12-ethyl-7-methoxy-11-methyl-15-(3,3,3-trifluoropropyl)-11,12,15,16,17,18,19, 20-octahydro-5,22-(azeno)-10,6-(metheno)pyrazolo[1,5-c][1,3,5,10,13,15] oxapentaazacycloheni-cosin-13(14H)-one]
95.9	48.8	CCN1C(=O)N[C@@H](CC(F)(F)F)CCCCCOc2nc(nn3ccnc23)-c2cc(cnc2OC)[C@H]1C [Example 99, (12R,16R)-13-ethyl-8-methoxy-12-methyl-16-(2,2,2-trifluoroethyl)-12,13,16,17,18,19,20, 21-octahydro-6,23-(azeno)-11,7-(metheno)imidazo[2,1-c][1,4,5,9,13,15] oxapentaazacycloheni-cosin-14(15H)-one]

More lines, now with the values behind:

Structure (SMILES)	hOX2R_Ipone max %act [%]	EC50 [nM]
CCN1C(=O)N[C@@H](CCC(F)(F)F)CCCCCCc2nc(cn3ccnc23)-c2cc(ncc2OC)[C@H]1C [Example 81, (12R,16R)-13-ethyl-8-methoxy-12-methyl-16-(3,3,3-trifluoropropyl)-12,13,15,16,17,18,19, 20,21,22-decahydro-14H-6,23-(azeno)-11,7-(metheno) imidazo[1,2-l][1,3,6,12]tetraazacy-clohenicosin-14-one]	100.1	3.3
CCN1C(=O)N[C@@H](CCC(F)(F)F)CCCCCOc2nc(cn3ncnc23)-c2cc(ncc2OC)[C@H]1C [Example 82, (12R,16R)-13-ethyl-8-methoxy-12-methyl-16-(3,3,3-tri-fluoropropyl)-12,13, 16,17,18,19,20,21-octahydro-6,23-(azeno)-11,7-(metheno)[1,2,4]tria-zolo[5,1-c][1,4,10,13, 15]oxatetraazacyclo-henicosin-14(15H)-one]	99.62	2.2
CCN1C(=O)N[C@@H](CCC(C)(F)F)CCCCCOc2nc(cn3ccnc23)-c2cc(ncc2OC)[C@H]1C [Example 83, (12R,16R)-16-(3,3-difluorobutyl)-13-ethyl-8-methoxy-12-methyl-12,13,16,17, 18,19,20,21-octa-hydro-6,23-(azeno)-11,7-(metheno) imidazo[2,1-c][1,4,9,13,15]oxatetraazacy-clohenicosin-14(15H)-one]	100.7	1
CCN1C(=O)N[C@@H](CCC(C)(F)F)CCCCCOc2nc(cn3ccnc23)-c2ccnc(c2)[C@H]1C [Example 84, (12R,16R)-16-(3,3-difluorobutyl)-13-ethyl-12-methyl-12, 13,16,17,18,19,20,21-octahydro-6,23-(azeno)-11,7-(metheno)imidazo[2,1-c][1,4,10,13,15] oxatetraazacycloheni-cosin-14(15H)-one]	99.1	1.5
CCN1C(=O)NCCCCCCOc2nc(cn3ccnc23)-c2cc(ncc2OC)[C@H]1C [Example 85, (12R)-13-ethyl-8-methoxy-12-methyl-12,13,16,17,18,19,20, 21-octahydro-6,23-(azeno)-11,7-(metheno)imidazo[2,1-c][1,4,10,13,15] oxatetraazacycloheni-cosin-14(15H)-one]	100.5	5.1
CCN1C(=O)N[C@@H](CCC(F)(F)F)CCCCCOc2nc(c(C)n3ccnc23)-c2cc(cnc2OC)[C@H]1C [Example 86, (12R,16R)-13-ethyl-8-methoxy-5,12-dimethyl-16-(3,3,3-trifluoropropyl)-12,13,16,17,18,19,20, 21-octahydro-6,23-(azeno)-11,7-(metheno)imidazo[2,1-c][1,4,9,13,15] oxatetraazacycloheni-cosin-14(15H)-one]	99.3	3.5
CCN1C(=O)N[C@@H](CCC(F)(F)F)CCCCCOc2nc(nn3ccnc23)-c2cccc(c2)[C@H]1C [Example 87, (12R,16R)-13-ethyl-12-methyl-16-(3,3,3-trifluoropropyl)-12,13,16,17,18,19,20, 21-octahydro-6,23-(azeno)-11,7-(metheno)imidazo[2,1-c][1,4,5,13,15] oxatetraazacycloheni-cosin-14(15H)-one]	100.6	5.8
CCN1C(=O)N[C@@H](CCC(F)(F)F)CCCCCOc2cc(nn3ccnc23)-c2cc(cnc2OC)[C@H]1C [Example 89, (12R,16R)-13-ethyl-8-methoxy-12-methyl-16-(3,3,3-trifluoropropyl)-12,13,16,17,18,19,20, 21-octahydro-6,23:11,7-di(metheno) imidazo[2,1-c][1,4,5,9,13,15]oxapentaaza-cyclohenicosin-14(15H)-one]	99.2	6.4
CCN1C(=O)N[C@@H](CCC(F)(F)F)CCCCCOc2nc(cn3ccnc23)-c2cccc(n2)C1C (stereo partly drawn) [Example 90, (16R)-13-ethyl-12-methyl-16-(3,3,3-trifluoropropyl)-12,13,16,17,18,19,20, 21-octahydro-6,23:11,7-di(azeno) imidazo[2,1-c][1,4, 13,15]oxatriazacyclo-henicosin-14(15H)-one]	100.8	101
CCN1C(=O)N[C@@H](CCC(F)(F)F)CCCCCOc2cc(cn3ccnc23)-c2cc(cnc2OC)[C@H]1C [Example 91, (12R,16R)-13-ethyl-8-methoxy-12-methyl-16-(3,3,3-trifluoropropyl)-12,13,16,17,18,19,20, 21-octahydro-6,23:11,7-di(metheno) imidazo[2,1-c][1,4,9, 13,15]oxatetraazacyclo-henicosin-14(15H)-one]	100.5	0.6
